According to paper PMC6757289, “Design and Characterization of SGK3-PROTAC1, an Isoform Specific SGK3 Kinase PROTAC Degrader” (ACS Chemical Biology, 2019):
Each block holds one compound with its values, some of them ahead of it. Where a SMILES comes first, the peptide text is derived from it. The star is where a group is joined. Cbz = O=C(OCc1ccccc1)*

Assays:
SGK3 [1] = target: T1, SGK3 (Homo sapiens, UniProt Q96BR1); assay: SGK3 degradation in HEK293 cells, immunoblot; type: cell-based; parameters: reduced endogenous SGK isoform or S6K1 expression when administered to HEK293 cells for 48 h; endogenous in cells; host or cells: HEK293; details: for effect on SGK3-PROTAC1-mediated degradation of SGK3: HEK293, pretreatment, 6 h 0.3 µM SGK3-PROTAC1; for effect on DAT1-induced degradation of SGK3: HEK293, MLN4924 3 μM, MG132 50 μM
T1 sequence (Q96BR1 1-496): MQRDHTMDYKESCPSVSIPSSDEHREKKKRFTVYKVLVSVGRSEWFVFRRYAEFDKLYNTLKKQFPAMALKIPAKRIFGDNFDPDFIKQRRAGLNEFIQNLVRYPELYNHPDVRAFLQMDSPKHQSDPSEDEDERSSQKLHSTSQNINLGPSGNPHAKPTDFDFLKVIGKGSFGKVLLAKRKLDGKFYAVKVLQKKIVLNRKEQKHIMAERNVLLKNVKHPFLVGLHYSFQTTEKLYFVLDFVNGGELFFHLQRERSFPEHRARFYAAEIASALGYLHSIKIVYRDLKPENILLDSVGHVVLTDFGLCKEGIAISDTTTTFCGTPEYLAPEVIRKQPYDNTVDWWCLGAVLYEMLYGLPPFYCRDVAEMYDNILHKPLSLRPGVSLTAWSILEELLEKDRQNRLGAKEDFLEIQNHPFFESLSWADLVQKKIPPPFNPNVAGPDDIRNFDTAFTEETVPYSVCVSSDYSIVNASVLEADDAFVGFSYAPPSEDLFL
Procedure: Figure 1 Design and cellular activity of first generation SGK3 PROTACs. (A) Structure of compound 14H, previously published by Sanofi as an inhibitor of SGK3. (B) Starting material for SGK PROTACs. […] (C) Structures of first generation SGK PROTACs. SGK and E3 ligase targeting motifs were joined by a 3xPEG linker to produce the PROTACs. (D) HEK293 cells were treated for 48 h with increasing concentrations of each PROTAC compound from 0.1 nM to 10 μM. Cell lysates were subjected to immunoblot analysis with the indicated antibodies, and SGK3 protein levels were quantified in Image Studio Lite software (Licor).
Figure 2 Design and cellular evaluation of second and third generation SGK PROTACs. (A) Chemical structure of compounds DAT5–12, expanding upon DAT1. (B) Chemical structure of cisSGK3-PROTAC1. (C) HEK293 cells were treated for 48 h with increasing concentrations of each PROTAC compound from 1 nM to 10 μM. Cell lysates were subjected to immunoblot analysis with the indicated antibodies, and SGK3 protein levels quantified in Image Studio Lite software. (D) HEK293 cells were treated for 48 h with increasing concentrations of each PROTAC compound from 1 nM to 10 μM. Cell lysates were subjected to immunoblot analysis with the indicated antibodies, and SGK3 and S6K1 protein levels were quantified in Image Studio Lite software. TEXT PRINTED IN THE PICTURE: (C) DAT1: % SGK3: 100 (48h Treatment (μM): 0); % SGK3: 94 (48h Treatment (μM): 0.001); % SGK3: 82 (48h Treatment (μM): 0.01); % SGK3: 70 (48h Treatment (μM): 0.1); % SGK3: 52 (48h Treatment (μM): 1); % SGK3: 31 (48h Treatment (μM): 10) | (C) DAT5: % SGK3: 100 (48h Treatment (μM): 0); % SGK3: 104 (48h Treatment (μM): 0.001); % SGK3: 82 (48h Treatment (μM): 0.01); % SGK3: 92 (48h Treatment (μM): 0.1); % SGK3: 73 (48h Treatment (μM): 1); % SGK3: 36 (48h Treatment (μM): 10) | (C) DAT6: % SGK3: 100 (48h Treatment (μM): 0); % SGK3: 105 (48h Treatment (μM): 0.001); % SGK3: 90 (48h Treatment (μM): 0.01); % SGK3: 71 (48h Treatment (μM): 0.1); % SGK3: 44 (48h Treatment (μM): 1); % SGK3: 20 (48h Treatment (μM): 10) | (C) DAT7: % SGK3: 100 (48h Treatment (μM): 0); % SGK3: 77 (48h Treatment (μM): 0.001); % SGK3: 80 (48h Treatment (μM): 0.01); % SGK3: 95 (48h Treatment (μM): 0.1); % SGK3: 37 (48h Treatment (μM): 1); % SGK3: 29 (48h Treatment (μM): 10) | (D) DAT8: % SGK3: 100 (48h Treatment (μM): 0); % SGK3: 97 (48h Treatment (μM): 0.001); % SGK3: 107 (48h Treatment (μM): 0.01); % SGK3: 34 (48h Treatment (μM): 0.1); % SGK3: 24 (48h Treatment (μM): 1); % SGK3: 19 (48h Treatment (μM): 10) | (D) DAT9: % SGK3: 100 (48h Treatment (μM): 0); % SGK3: 105 (48h Treatment (μM): 0.001); % SGK3: 71 (48h Treatment (μM): 0.01); % SGK3: 40 (48h Treatment (μM): 0.1); % SGK3: 11 (48h Treatment (μM): 1); % SGK3: 12 (48h Treatment (μM): 10) | (D) DAT10: % SGK3: 100 (48h Treatment (μM): 0); % SGK3: 100 (48h Treatment (μM): 0.001); % SGK3: 76 (48h Treatment (μM): 0.01); % SGK3: 54 (48h Treatment (μM): 0.1); % SGK3: 11 (48h Treatment (μM): 1); % SGK3: 9 (48h Treatment (μM): 10) | (D) DAT11: % SGK3: 100 (48h Treatment (μM): 0); % SGK3: 96 (48h Treatment (μM): 0.001); % SGK3: 97 (48h Treatment (μM): 0.01); % SGK3: 41 (48h Treatment (μM): 0.1); % SGK3: 32 (48h Treatment (μM): 1); % SGK3: 29 (48h Treatment (μM): 10) | (D) DAT12: % SGK3: 100 (48h Treatment (μM): 0); % SGK3: 106 (48h Treatment (μM): 0.001); % SGK3: 84 (48h Treatment (μM): 0.01); % SGK3: 79 (48h Treatment (μM): 0.1); % SGK3: 32 (48h Treatment (μM): 1); % SGK3: 29 (48h Treatment (μM): 10) DOUBTS OF THE COPYIST ABOUT THIS PICTURE: All % SGK3 values are quantification numbers printed under immunoblot lanes; each was assigned to a concentration by lane position / DAT9 and DAT10, % SGK3: the first numbers are printed run together ('100105', '100100') and were split as 100 | 105 and 100 | 100
Figure 3 Characterization of cellular activities of SGK3-PROTAC1 and cisSGK3-PROTAC1. […]

SGK1 = target: T2, SGK1 (Homo sapiens, UniProt O00141, S422D); assay: IC50 determination, biochemical kinase assay; details: not in the presence of VHL
T2 sequence (O00141 60-431 S422D limits assumed): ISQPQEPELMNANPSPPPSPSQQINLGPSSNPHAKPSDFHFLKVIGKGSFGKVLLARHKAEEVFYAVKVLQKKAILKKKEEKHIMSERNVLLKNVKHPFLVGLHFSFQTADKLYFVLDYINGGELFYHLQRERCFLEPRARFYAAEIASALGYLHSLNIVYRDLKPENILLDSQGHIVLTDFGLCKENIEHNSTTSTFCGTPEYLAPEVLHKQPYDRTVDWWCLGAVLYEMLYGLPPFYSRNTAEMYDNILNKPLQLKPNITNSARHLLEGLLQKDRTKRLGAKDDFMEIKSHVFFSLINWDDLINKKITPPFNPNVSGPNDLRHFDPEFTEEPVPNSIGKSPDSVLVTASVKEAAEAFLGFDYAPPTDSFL

SGK3 [2] = target: T1, SGK3; assay: IC50 determination, biochemical kinase assay; details: for IC50: not in the presence of VHL
Procedure: (§1) IC50 determination was performed at the MRC PPU International Centre for Protein Kinase Profiling, according to the protocol previously described[47],[48]

S6K1 = S6K1 (Homo sapiens, UniProt P23443, T412E); assay: IC50 determination, biochemical kinase assay; details: not in the presence of VHL
Chain of S6K1 (P23443 1-421 T412E limits assumed): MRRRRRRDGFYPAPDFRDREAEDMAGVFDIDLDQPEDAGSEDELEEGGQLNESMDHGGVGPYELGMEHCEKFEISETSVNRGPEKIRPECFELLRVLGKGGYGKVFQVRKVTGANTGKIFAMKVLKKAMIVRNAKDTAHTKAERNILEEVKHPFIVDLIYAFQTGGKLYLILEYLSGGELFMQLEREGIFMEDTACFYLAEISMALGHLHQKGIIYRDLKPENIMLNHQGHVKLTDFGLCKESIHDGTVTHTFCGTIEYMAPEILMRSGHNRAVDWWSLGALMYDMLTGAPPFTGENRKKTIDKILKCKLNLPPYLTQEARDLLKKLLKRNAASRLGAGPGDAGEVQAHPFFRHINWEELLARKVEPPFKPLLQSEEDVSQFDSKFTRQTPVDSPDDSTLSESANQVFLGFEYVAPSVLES
Procedure: as §1

ZR-75-1 cells = assay: Cell growth (confluency, Incucyte S3); type: cell-based; details: ZR-75-1, 1 μM
Procedure: (§2) Figure 6 SGK3-PROTAC1-mediated degradation of SGK3 further inhibiting the growth of cancer cell lines treated with PI3K-Akt pathway inhibitors. CAMA-1 (A, C) and ZR-75-1 (B, D) were treated with compounds as indicated either as monotherapy or in combination, and confluency was measured on the Incucyte S3 every 4 h for up to 4 weeks.
(§3) For growth assays, ZR-75-1 cells were seeded in 96-well plates at a density of 6000 cells/well and left to adhere overnight. Cells were then treated with compounds as described in the figure legends and imaged every 4 h on the Incucyte S3 (Essen Bioscience) for up to 4 weeks to give a measure of cell confluency. Media were refreshed every 4–5 days.
(§4) Supplementary Figure S3. SGK3-PROTAC compounds have no effect on cell growth. CAMA-1 and ZR-75-1
(§5) confluency was m easured every 4 h on Incucyte S3.
(§6) (1 picture or pasted object on this page, not shown here)

CAMA-1 cells = assay: Cell growth (confluency, Incucyte S3); type: cell-based; details: CAMA-1, 1 μM
Procedure: as §2, §3, §4, §5, §6

SMILES: Cc1ccc(F)c(S(=O)(=O)Nc2ccc(-c3nc(OC[C@H]4CN(CCCCCCOCCOCCOCCOCC(=O)N[C@H](C(=O)N5C[C@H](O)C[C@H]5C(=O)NCc5ccc(-c6scnc6C)cc5)C(C)(C)C)CCO4)c4cn[nH]c4n3)cc2)c1 [DAT9]
remaining activity at 0.001 µM (SGK3 [1]; HEK293, 48 h, 0.001 μM, Figure 2): 105% | remaining activity at 0.01 µM (SGK3 [1]; HEK293, 48 h, 0.01 μM, Figure 2): 71% | remaining activity at 0.1 µM (SGK3 [1]; HEK293, 48 h, 0.1 μM, Figure 2): 40% | remaining activity at 1 µM (SGK3 [1]; HEK293, 48 h, 1 μM, Figure 2): 11% | remaining activity at 10 µM (SGK3 [1]; HEK293, 48 h, 10 μM, Figure 2): 12% | IC50 (SGK1): 8.99 µM | IC50 (SGK3 [2]): 1.79 µM | IC50 (S6K1): 4.53 µM

SMILES: CS(=O)(=O)N1CCN(Cc2cc3nc(-c4cccc5[nH]ncc45)nc(N4CCOCC4)c3s2)CC1 [GDC0941, 2-(1H-Indazol-4-Yl)-6-(4-Methanesulfonyl-Piperazin-1-Ylmethyl)-4-Morpholin-4-Yl-t Hieno[3,2-d]Pyrimidine, reference compound]
growth, PI3K or Akt inhibitor monotherapy (ZR-75-1 cells): substantially reduced growth | growth, PI3K or Akt inhibitor monotherapy (CAMA-1 cells): substantially reduced growth

SMILES: COc1ccc(Cl)c(S(=O)(=O)Nc2ccc(-c3nc(OC[C@H]4CN(CCOCCOCCOCC(=O)N[C@H](C(=O)N5C[C@H](O)C[C@H]5C(=O)NCc5ccc(-c6scnc6C)cc5)C(C)(C)C)CCO4)c4c(C)n[nH]c4n3)cc2)c1 [DAT2]
IC50 (SGK1): 0.4 µM | fold more potent inhibition of SGK1 and SGK3 than DAT1 (SGK3 [2]; SGK1 and SGK3): 2–4 fold | IC50 (SGK3 [2]): 0.19 µM | IC50 (S6K1): 0.18 µM

SMILES: NC1(C(=O)N[C@@H](CCO)c2ccc(Cl)cc2)CCN(c2ncnc3[nH]ccc23)CC1 [AZD5363, reference compound]
growth, PI3K or Akt inhibitor monotherapy (ZR-75-1 cells): substantially reduced growth | growth, PI3K or Akt inhibitor monotherapy (CAMA-1 cells): substantially reduced growth

SMILES: CC(C)C[C@@H](C=O)NC(=O)[C@H](CC(C)C)NC(=O)[C@H](CC(C)C)NC(=O)OCc1ccccc1 [MG132, reference compound] (Cbz-Leu-Leu-Leu-aldehyde)
effect on SGK3-PROTAC1-mediated degradation of SGK3 (SGK3 [1]): prevented | effect on DAT1-induced degradation of SGK3 (SGK3 [1]): blocked

The remaining lines, values ahead:

IC50 (SGK1): 1 µM | IC50 (SGK3 [2]): 0.64 µM | IC50 (S6K1): 0.24 µM
SMILES: Cc1ccc(F)c(S(=O)(=O)Nc2ccc(-c3nc(OC[C@H]4CN(CCOCCOCCOCC(=O)NCCNc5cccc6c5C(=O)N(C5CCC(=O)NC5=O)C6=O)CCO4)c4cn[nH]c4n3)cc2)c1 (some centres unmarked) [DAT3]

IC50 (SGK1): 0.6 µM | IC50 (SGK3 [2]): 0.54 µM | IC50 (S6K1): 0.19 µM
SMILES: COc1ccc(Cl)c(S(=O)(=O)Nc2ccc(-c3nc(OC[C@H]4CN(CCOCCOCCOCC(=O)NCCNc5cccc6c5C(=O)N(C5CCC(=O)NC5=O)C6=O)CCO4)c4c(C)n[nH]c4n3)cc2)c1 (some centres unmarked) [DAT4]

effect on SGK3-PROTAC1-mediated degradation of SGK3 (SGK3 [1]): prevented | effect on DAT1-induced degradation of SGK3 (SGK3 [1]): blocked
SMILES: NS(=O)(=O)OC[C@@H]1C[C@@H](n2ccc3c(N[C@H]4CCc5ccccc54)ncnc32)C[C@@H]1O [MLN4924, reference compound]
